Results taken from ChEMBL document CHEMBL1152560, “Substituted 2-arylbenzothiazoles as kinase inhibitors: hit-to-lead optimization” (Bioorg Med Chem, 2009).

How the values were obtained:
[1] = molecular target: T1, Megakaryocyte-associated tyrosine-protein kinase (Homo sapiens) (UniProt P42679); assay: Residual activity of MATK at 10 uM by microplate scintillation counting
T1 sequence (whole entry): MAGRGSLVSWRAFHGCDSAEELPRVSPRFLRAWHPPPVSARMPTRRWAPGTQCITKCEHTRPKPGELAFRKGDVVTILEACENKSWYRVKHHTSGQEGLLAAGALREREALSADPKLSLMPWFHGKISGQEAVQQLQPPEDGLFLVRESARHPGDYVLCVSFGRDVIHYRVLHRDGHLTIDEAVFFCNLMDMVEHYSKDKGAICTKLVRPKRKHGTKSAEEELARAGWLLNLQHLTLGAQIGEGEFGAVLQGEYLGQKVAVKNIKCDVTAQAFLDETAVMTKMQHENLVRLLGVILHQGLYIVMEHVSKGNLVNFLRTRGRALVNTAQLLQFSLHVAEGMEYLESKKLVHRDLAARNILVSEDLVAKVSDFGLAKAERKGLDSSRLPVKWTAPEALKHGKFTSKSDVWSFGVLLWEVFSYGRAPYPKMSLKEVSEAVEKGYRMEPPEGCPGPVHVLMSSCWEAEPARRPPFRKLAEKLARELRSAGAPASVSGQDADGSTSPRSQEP

Angiopoietin-1 receptor = Angiopoietin-1 receptor (Homo sapiens, UniProt Q02763); assay: Inhibition of TIE2 by microplate scintillation counting
[2] = molecular target: Tyrosine-protein kinase receptor UFO (Homo sapiens) (UniProt P30530); assay: Residual activity of AXL at 10 uM by microplate scintillation counting
[3] = molecular target: Receptor-interacting serine/threonine-protein kinase 2 (Homo sapiens) (UniProt O43353); assay: Residual activity of RIPK2 at 1 uM by microplate scintillation counting
[4] = molecular target: Ribosomal protein S6 kinase alpha-6 (Homo sapiens) (UniProt Q9UK32); assay: Residual activity of RPS6KA6 at 0.1 uM by microplate scintillation counting
Sequence of Ribosomal protein S6 kinase alpha-6 (Homo sapiens) (Q9UK32 whole entry): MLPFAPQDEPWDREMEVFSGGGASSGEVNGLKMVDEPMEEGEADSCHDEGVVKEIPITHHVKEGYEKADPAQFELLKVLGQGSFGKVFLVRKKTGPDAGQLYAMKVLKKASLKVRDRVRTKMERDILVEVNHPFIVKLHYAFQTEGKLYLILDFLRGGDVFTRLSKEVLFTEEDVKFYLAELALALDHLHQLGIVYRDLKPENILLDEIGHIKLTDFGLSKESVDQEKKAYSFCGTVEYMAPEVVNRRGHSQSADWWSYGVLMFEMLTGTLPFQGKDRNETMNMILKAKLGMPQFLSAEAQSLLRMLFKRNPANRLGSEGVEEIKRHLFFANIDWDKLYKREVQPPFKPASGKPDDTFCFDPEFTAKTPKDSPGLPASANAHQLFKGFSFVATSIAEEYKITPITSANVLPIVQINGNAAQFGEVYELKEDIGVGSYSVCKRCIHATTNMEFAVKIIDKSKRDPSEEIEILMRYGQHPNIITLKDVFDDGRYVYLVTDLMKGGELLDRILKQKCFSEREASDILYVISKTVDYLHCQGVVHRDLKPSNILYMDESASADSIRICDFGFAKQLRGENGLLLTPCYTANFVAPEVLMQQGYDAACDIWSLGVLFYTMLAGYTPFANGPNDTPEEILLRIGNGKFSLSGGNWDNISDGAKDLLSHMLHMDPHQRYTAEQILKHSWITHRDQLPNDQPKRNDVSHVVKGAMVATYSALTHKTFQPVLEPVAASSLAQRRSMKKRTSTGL

[5] = molecular target: Protein kinase C alpha type (Homo sapiens) (UniProt P17252); assay: Residual activity of PKCalpha at 0.1 uM by microplate scintillation counting
[6] = molecular target: Homeodomain-interacting protein kinase 3 (Homo sapiens) (UniProt Q9H422); assay: Residual activity of HIPK3 at 1 uM by microplate scintillation counting
Sequence of Homeodomain-interacting protein kinase 3 (Homo sapiens) (Q9H422 whole entry, looked up): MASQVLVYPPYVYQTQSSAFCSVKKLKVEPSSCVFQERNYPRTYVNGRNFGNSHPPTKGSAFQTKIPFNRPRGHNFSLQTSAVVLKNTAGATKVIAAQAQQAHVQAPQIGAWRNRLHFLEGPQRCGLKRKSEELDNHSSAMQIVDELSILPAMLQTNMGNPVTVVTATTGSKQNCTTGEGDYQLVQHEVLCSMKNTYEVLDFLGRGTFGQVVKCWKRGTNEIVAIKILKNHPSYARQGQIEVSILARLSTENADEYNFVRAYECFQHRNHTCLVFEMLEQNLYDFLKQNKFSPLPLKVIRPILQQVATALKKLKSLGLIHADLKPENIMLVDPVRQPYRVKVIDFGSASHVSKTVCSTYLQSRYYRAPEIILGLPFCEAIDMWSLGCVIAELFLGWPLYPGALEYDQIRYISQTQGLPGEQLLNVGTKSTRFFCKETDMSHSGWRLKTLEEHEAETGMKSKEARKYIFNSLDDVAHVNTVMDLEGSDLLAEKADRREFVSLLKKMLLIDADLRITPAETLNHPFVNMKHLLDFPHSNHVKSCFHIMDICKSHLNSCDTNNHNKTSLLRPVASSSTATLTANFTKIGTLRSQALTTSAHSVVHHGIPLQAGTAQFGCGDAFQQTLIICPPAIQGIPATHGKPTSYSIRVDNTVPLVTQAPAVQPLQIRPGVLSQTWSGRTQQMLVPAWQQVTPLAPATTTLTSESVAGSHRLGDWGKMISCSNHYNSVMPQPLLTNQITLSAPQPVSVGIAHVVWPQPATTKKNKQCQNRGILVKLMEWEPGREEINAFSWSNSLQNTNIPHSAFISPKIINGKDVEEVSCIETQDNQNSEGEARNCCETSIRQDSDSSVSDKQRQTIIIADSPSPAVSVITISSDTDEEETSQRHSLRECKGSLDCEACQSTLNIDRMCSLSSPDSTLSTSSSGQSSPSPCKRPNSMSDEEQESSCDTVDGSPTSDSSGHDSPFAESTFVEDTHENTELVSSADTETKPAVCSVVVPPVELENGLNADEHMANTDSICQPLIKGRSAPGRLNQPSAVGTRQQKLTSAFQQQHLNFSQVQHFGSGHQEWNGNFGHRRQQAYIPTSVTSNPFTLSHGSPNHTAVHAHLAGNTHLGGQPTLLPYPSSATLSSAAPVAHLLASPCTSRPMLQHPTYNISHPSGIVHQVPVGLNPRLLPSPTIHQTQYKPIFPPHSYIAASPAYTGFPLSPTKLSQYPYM

[7] = molecular target: Epidermal growth factor receptor (Homo sapiens, UniProt P00533); assay: Inhibition of wild type EGF-R by microplate scintillation counting
Sequence of Epidermal growth factor receptor (P00533 whole entry): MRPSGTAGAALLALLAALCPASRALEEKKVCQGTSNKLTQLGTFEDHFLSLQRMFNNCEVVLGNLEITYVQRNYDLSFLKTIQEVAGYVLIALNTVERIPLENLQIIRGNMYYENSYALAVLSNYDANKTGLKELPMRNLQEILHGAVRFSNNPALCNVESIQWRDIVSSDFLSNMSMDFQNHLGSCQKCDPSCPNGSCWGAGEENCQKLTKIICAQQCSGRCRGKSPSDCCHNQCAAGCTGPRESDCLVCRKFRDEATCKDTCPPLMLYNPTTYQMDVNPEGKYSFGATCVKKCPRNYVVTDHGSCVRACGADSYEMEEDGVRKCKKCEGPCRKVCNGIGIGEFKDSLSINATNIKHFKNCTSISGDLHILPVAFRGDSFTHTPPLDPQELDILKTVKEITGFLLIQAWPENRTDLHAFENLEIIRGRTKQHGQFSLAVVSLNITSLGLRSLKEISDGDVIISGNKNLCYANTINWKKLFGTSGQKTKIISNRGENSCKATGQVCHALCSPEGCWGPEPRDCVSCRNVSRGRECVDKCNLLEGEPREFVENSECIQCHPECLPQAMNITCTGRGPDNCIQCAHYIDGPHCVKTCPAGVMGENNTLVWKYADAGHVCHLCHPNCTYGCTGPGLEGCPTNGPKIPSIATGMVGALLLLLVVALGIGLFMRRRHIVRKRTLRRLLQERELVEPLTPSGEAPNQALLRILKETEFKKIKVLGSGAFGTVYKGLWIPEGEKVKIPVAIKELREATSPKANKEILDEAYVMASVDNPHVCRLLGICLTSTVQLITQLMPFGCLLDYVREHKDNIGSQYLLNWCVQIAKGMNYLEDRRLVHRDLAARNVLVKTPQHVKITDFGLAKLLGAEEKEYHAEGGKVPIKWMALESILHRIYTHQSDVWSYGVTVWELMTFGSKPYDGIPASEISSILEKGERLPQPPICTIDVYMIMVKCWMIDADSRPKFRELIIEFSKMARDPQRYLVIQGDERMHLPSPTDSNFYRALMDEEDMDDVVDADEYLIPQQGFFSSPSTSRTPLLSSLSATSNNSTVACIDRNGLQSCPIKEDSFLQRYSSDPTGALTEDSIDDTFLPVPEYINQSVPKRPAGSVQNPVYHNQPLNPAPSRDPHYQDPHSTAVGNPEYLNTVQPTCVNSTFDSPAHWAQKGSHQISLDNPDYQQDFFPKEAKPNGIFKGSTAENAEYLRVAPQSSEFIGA

[8] = molecular target: Protein kinase C theta type (Homo sapiens) (UniProt Q04759); assay: Residual activity of PKCtheta at 1 uM by microplate scintillation counting
[9] = molecular target: T2, Dual specificity protein kinase TTK (Homo sapiens) (UniProt P33981); assay: Residual activity of TTK at 10 uM by microplate scintillation counting
T2 sequence (whole entry): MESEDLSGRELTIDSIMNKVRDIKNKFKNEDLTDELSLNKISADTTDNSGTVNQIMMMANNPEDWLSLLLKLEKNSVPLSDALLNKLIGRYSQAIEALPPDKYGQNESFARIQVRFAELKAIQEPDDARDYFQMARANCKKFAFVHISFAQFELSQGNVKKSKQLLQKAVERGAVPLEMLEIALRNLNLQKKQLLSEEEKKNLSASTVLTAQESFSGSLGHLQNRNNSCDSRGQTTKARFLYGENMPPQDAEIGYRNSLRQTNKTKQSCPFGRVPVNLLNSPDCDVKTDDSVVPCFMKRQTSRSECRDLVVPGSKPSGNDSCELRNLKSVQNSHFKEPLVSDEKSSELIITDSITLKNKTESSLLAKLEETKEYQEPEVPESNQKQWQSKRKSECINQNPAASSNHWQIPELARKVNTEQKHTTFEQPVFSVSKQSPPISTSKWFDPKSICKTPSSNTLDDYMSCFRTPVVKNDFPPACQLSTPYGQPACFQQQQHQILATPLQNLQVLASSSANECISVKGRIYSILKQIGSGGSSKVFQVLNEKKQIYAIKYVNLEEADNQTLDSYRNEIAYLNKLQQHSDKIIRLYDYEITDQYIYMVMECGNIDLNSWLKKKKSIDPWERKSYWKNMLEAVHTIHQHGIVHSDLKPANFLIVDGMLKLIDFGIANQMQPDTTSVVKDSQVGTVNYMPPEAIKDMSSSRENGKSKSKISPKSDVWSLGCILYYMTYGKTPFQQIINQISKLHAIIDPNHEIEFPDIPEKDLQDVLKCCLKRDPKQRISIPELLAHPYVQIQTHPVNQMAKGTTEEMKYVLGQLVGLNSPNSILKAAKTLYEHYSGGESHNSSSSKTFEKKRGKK

[10] = molecular target: Protein-tyrosine kinase 6 (Homo sapiens) (UniProt Q13882); assay: Residual activity of BRK at 1 uM by microplate scintillation counting
[11] = molecular target: CDK9/cyclin T1 (Homo sapiens) (UniProt O60563+P50750); assay: Residual activity of CDK9/Cyclin T at 0.1 uM by microplate scintillation counting; assay type: protein-complex assay
[12] = molecular target: Tyrosine-protein kinase receptor UFO (Homo sapiens) (UniProt P30530); assay: Residual activity of AXL at 0.1 uM by microplate scintillation counting
[13] = molecular target: Casein kinase I isoform epsilon (Homo sapiens) (UniProt P49674); assay: Residual activity of CK1epsilon at 1 uM by microplate scintillation counting
[14] = molecular target: Calcium/calmodulin-dependent protein kinase type 1D (Homo sapiens) (UniProt Q8IU85); assay: Residual activity of CAMK1D at 1 uM by microplate scintillation counting
Sequence of Calcium/calmodulin-dependent protein kinase type 1D (Homo sapiens) (Q8IU85 whole entry, looked up): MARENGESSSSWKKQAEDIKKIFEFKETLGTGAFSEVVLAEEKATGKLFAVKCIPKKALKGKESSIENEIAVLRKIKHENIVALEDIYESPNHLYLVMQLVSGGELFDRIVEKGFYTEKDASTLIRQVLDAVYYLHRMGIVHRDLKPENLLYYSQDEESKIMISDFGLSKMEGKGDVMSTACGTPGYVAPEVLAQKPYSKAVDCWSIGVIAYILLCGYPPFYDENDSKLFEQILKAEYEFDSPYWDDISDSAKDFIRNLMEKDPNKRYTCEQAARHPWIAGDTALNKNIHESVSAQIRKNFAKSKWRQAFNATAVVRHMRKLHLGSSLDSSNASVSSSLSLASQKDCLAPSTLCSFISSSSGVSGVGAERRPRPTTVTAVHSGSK

[15] = molecular target: Vascular endothelial growth factor receptor 3 (Homo sapiens, UniProt P35916); assay: Residual activity of VEGFR3 at 10 uM by microplate scintillation counting
Sequence of Vascular endothelial growth factor receptor 3 (P35916 whole entry): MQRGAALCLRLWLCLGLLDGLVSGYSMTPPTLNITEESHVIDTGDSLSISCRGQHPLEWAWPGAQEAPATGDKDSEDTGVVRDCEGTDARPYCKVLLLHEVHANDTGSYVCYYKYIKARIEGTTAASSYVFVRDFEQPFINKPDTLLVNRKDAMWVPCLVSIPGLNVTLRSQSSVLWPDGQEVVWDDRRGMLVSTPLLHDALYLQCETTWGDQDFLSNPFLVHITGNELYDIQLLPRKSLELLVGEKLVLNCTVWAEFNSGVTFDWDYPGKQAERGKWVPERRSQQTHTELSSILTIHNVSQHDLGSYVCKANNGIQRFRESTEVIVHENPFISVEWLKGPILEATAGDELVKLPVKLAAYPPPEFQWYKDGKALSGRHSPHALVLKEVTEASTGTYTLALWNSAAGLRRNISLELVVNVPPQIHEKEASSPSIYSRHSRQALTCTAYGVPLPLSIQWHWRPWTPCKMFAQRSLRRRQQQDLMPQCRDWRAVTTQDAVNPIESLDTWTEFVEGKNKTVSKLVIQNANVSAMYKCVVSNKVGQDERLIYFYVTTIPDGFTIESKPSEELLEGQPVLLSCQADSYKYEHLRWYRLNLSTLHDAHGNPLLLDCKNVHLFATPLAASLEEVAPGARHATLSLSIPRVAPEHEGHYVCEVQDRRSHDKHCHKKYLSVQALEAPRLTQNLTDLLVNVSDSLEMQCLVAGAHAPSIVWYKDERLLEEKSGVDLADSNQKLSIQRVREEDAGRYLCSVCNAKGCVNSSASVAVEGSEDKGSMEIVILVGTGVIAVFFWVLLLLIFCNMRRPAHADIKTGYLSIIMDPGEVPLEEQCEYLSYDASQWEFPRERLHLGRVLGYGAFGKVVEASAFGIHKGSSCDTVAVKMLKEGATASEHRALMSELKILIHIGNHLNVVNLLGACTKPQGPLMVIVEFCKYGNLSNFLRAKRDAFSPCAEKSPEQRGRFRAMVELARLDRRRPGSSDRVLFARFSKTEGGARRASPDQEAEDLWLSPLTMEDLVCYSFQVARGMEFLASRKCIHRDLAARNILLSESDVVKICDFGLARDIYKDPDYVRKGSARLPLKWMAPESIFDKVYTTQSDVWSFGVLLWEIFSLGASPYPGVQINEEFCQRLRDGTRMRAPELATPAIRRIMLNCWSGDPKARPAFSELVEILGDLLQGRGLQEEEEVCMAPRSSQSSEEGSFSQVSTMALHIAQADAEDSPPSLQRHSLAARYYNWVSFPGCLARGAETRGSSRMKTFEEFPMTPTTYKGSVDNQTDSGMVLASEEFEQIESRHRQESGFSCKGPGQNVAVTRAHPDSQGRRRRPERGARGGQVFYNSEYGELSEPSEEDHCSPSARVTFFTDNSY

[16] = molecular target: Death-associated protein kinase 1 (Homo sapiens) (UniProt P53355); assay: Residual activity of DAPK1 at 0.1 uM by microplate scintillation counting
[17] = tested on: T3, Dual specificity mitogen-activated protein kinase kinase 6 (Homo sapiens), P52564 [S207D,T211D]; assay: Residual activity of MKK6 S207D/T211D mutant at 0.1 uM by microplate scintillation counting
T3 sequence (whole entry): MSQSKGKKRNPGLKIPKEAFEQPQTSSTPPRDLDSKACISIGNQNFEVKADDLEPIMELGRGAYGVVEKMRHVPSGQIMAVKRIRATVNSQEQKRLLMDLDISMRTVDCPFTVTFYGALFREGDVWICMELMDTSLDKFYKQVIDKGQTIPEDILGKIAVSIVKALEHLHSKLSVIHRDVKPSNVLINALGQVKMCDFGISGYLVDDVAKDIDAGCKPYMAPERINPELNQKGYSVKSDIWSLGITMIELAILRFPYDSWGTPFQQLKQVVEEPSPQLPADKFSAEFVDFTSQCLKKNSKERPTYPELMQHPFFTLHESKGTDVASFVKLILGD

[18] = molecular target: Dual specificity tyrosine-phosphorylation-regulated kinase 1A (Homo sapiens) (UniProt Q13627); assay: Residual activity of DYRK1A at 0.1 uM by microplate scintillation counting
[19] = molecular target: Serine/threonine-protein kinase PAK 1 (Homo sapiens) (UniProt Q13153); assay: Residual activity of PAK1 at 10 uM by microplate scintillation counting

Row | Compound | residual activity [1] | IC50 (Angiopoietin-1 receptor) | residual activity [2] | residual activity [3] | residual activity [4] | residual activity [5] | residual activity [6] | IC50 [7] | residual activity [8] | residual activity [9] | residual activity [10] | residual activity [11] | residual activity [12] | residual activity [13] | residual activity [14] | residual activity [15] | residual activity [16] | residual activity [17] | residual activity [18] | residual activity [19]
1 | COc1cc2c(Oc3ccc(-c4nc5ccccc5s4)cc3F)ncnc2cc1OCCCN1CCN(C)CC1 | 215% | 88 nM | 54% | 29% | 95% | 100% | 81% | > 10000 nM | 100% | 70% | 4% | 91% | 104% | 101% | 91% | 4% | 80% | 95% | 89% | 57%
2 | COc1cc2c(Oc3ccc(-c4nc5ccccc5s4)cc3)ncnc2cc1OCCCN1CCCC1 | 267% | 72 nM | 57% | 29% | 92% | 137% | 86% | > 10000 nM | 111% | 84% | 8% | 94% | 96% | 107% | 92% | 6% | 86% | 72% | 87% | 69%
3 | COc1cc2c(Oc3ccc(-c4nc5ccccc5s4)cc3)ncnc2cc1OCCCN1CCN(C)CC1 | 377% | 44 nM | 125% | 25% | 96% | 108% | 84% | > 10000 nM | 113% | 69% | 7% | 101% | 117% | 94% | 87% | 4% | 73% | 80% | 94% | 68%
